Values quoted from earlier work, collected in patent publication US20020150615A1, “Injectable pharmaceutical composition comprising microdroplets of a camptothecin” (priority 2001, published 2002).

Columns and labels:
[1] = human whole blood
[2] = molecular target: human serum albumin (HSA) (Homo sapiens, UniProt P02768); details: PBS at pH 7.4
human serum albumin (HSA), sequence (P02768 25-609): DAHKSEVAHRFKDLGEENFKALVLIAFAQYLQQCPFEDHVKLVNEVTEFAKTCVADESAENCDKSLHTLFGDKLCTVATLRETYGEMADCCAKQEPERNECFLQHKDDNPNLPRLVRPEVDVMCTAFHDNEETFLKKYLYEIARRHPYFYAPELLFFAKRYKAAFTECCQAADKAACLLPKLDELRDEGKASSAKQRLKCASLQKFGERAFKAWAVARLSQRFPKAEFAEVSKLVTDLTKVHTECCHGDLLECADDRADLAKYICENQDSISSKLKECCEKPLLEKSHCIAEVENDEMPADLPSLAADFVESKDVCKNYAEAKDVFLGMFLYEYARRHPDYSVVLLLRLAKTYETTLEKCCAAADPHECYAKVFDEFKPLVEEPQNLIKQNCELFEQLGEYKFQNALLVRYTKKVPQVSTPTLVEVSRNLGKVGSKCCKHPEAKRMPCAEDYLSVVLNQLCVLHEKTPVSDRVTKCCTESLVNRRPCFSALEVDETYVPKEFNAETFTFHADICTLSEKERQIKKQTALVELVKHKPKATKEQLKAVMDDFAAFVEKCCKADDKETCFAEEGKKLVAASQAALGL

**Q.** What does the source list for `CC[C@@]1(O)C(=O)OCc2c1cc1n(c2=O)Cc2cc3ccccc3nc2-1` [camptothecin, 20(S)-camptothecin]?
**A.** half-life of lactone ring opening [1]: 22 min; affinity of the carboxylate form relative to the α-hydroxy lactone form [2]: 150 fold
